Activity calls are given as the source filed them.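 How the source made its calls: active means compounds giving half or more protection of infected cells from virus-caused growth loss, again on retest; inactive means the rest.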
Test system: CEM cells HIV-1 protection, formazan growth assay
Assay: NCI AIDS Antiviral Assay
Conditions: for IC50: measured here: growth of uninfected CEM cells
Outline: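 Protection of CEM cells against HIV-1 measured as cell growth via soluble formazan read-out, with five concentrations tested on both infected and uninfected cells; failure to protect may reflect toxicity.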

SMILES | EC50 [µM] | IC50 [µM] | outcome
Cc1cc(NC(=O)c2ccc(NC(=O)c3ccc(N)cc3)cc2)ccc1N=Nc1ccc2c(O)c(N=Nc3ccc(S(=O)(=O)O)cc3C)c(S(=O)(=O)O)cc2c1 | 6.17 | > 100 | 
N#C/C(=C\c1ccc(O)c(O)c1)C(=O)NCN1CCN(C(=O)/C(C#N)=C/c2ccc(O)c(O)c2)CC1 | > 200 | 19.1 | 
CC(=O)n1nc(-c2ccc3ccccc3c2)nc1C | > 200 | 79.4 | 
CCOC(=O)CC(NC(=O)c1ccc(N=NN(C)C)cc1)C(=O)OCC (stereo not drawn) | > 186 | > 186 | 
O=C1CCC/C1=C1/SS/C(=C2/CCCC2=O)S1 | > 200 | 102 | 
O=C1C(O)=C(c2ccccc2C(=O)O)C(=O)C(O)=C1c1ccccc1C(=O)O | > 110 | > 110 | 
CC/C(=C\c1ccc(OC)cc1)c1ccc(OC)cc1 | > 200 | > 200 | 
O=[N+]([O-])C(=C1Nc2ccccc2N1)C(Cl)=C(Cl)Cl | > 200 | 105 | 
Nc1ccc(SSc2ccc(Nc3ccnc4cc(Cl)ccc34)cc2)cc1 | > 200 | 5.01 | 
CC1(C)C(=O)N(O)C(C)(C)N1O | > 200 | > 200 | 
CC1(C)C(c2ccccc2)=NN(O)c2ccccc21 |  |  | inactive
CN(C)P1(=O)OCC(C(C)(C)C)CN1c1ccccc1 (stereo not drawn) | > 200 | > 200 | 
N#CC(C#N)=C1NN=C(Cl)c2ccccc21 |  |  | inactive
Cc1ccnc(NC(NC(=O)c2ccccc2)(C(F)(F)F)C(F)(F)F)c1 |  |  | inactive
CC(=O)n1c(O)c(N=Nc2ccccc2[N+](=O)[O-])c2ccccc21 | > 200 | > 200 | 
CN1Nc2ccccc2CC1=O | > 1550 | 55 | 
Cc1csc([C@H]2CCC3[C@@H]4CC=C5C[C@@H](OC(=O)CCC(=O)O)CC[C@]5(C)C4CC[C@@]32C)n1 (stereo partly drawn) | > 52.5 | 33.1 | 
CCC1CCC2c3c([nH]c4ccccc34)C3C(=O)N(c4ccc(OC)cc4)C(=O)C3C2C1 (stereo not drawn) | 33.9 | > 200 | 
CC(C)=CCC/C(C)=C/COC(C)(C)C1=CCC(C)CC1 (stereo not drawn) (tested in a mixture with another compound) | > 200 | > 200 | 
O=C(O)/C(Cl)=C(\Cl)C(=O)Nc1ccc(Cl)c(Cl)c1Cl |  |  | inactive
O=C(Cc1ccccc1)NN1C(=O)/C(=C\c2ccccc2)SC1=Nc1ccccc1 | > 120 | > 120 | 
CC1CC2(C)ON=C(c3ccccc3)N2c2ccccc2S1 (stereo not drawn) |  |  | inactive

SMILES | EC50 [µM] | IC50 [µM] | outcome
CC1=C[C@H]2O[C@@H]3C[C@H]4OC(=O)/C=C\C=C\C(C(C)O)OCC(O)C(C)CC(=O)OC[C@@]2(C[C@@H]1O)[C@]4(C)[C@@]31CO1 (stereo partly drawn) | > 2 | 0.0631 | 
COc1ccc(NC(=S)Nc2cccc(C)n2)cc1 | > 200 | > 200 | 
S=C(N1CC1)N1CC1 | > 200 | 42.7 | 
CC(C)CCC[C@@H](C)C1CCC2[C@@H]3CCC4C[C@@H](CCC=C(c5cc(Cl)c(O)c(C(=O)O)c5)c5cc(Cl)c(O)c(C(=O)O)c5)CC[C@]4(C)C3CC[C@@]21C (stereo partly drawn) | 32.4 | > 100 | 
c1ccc2c(NCCCCCCCCNc3c4ccccc4nc4ccccc34)c3ccccc3nc2c1 |  |  | inactive
NC(=O)NNc1nc(-c2ccccc2)cs1 | > 200 | 87.1 | 
COc1ccc(C(c2ccccc2C(=O)O)c2ccc(OC)c3ccccc23)c2ccccc12 | > 41.7 | 10.7 | 
CC(=O)Oc1ccc2cc(Oc3ccc(Cl)c(Cl)c3)c(=O)oc2c1 | > 200 | 85.1 | 
O=C(CC(C(=O)c1cccs1)c1ccc2c(c1)OCO2)c1ccccc1 (stereo not drawn) | > 200 | > 200 | 
C=C1CN(S(=O)(=O)c2ccc(C)cc2)CCCN(CC2CCCCC2)CCCN(S(=O)(=O)c2ccc(C)cc2)C1 | > 46.8 | 1.17 | 
Cc1oc2c(c1C(=O)c1ccccc1)C(=O)c1ccccc1C2=O | > 58.9 | 11.7 | 
O=C1NC(=O)C(=Cc2cccc(Br)c2)C(=O)N1 | > 123 | > 123 | 
CN(CCO)c1nc(=O)c2c(n1C1OC(CO)C(O)C(O)C1O)CCCC2 (stereo not drawn) | > 339 | > 339 | 
COc1ccc2c(c1)C(=O)OCCC2 | > 200 | > 200 | 
O=C1N[C@H](C(=O)O)[C@@H](c2ccc(OCc3ccccc3)cc2)O1 | > 200 | > 200 | 
CCOC(=O)c1sc2c(c1OC(=O)c1cccs1)c(=O)n(-c1ccccc1)c(=S)n2-c1ccccc1 | > 200 | 6.92 | 
COC1=CC(=O)C(=O)c2ccc(C)nc21 |  |  | inactive
O=C1OCC(Cc2ccc3c(c2)OCO3)[C@H]1Cc1ccc(O)cc1 (stereo partly drawn) | > 200 | 66.1 | 
Cc1cc2c3c(c1)C(=O)CCN3CCC2=O |  |  | inactive
CN(C)/C=C1\CCc2ccc([N+](=O)[O-])cc2C1=O | > 200 | 93.3 | 
O=S(=O)(SSS(=O)(=O)c1ccc(Cl)c(Cl)c1)c1ccc(Cl)c(Cl)c1 | > 53.7 | > 53.7 | 
Cc1ccc2c(c1)C(=S)N1CSCC1c1nncn1-2 (stereo not drawn) | > 200 | > 200 | 

SMILES | EC50 [µM] | IC50 [µM] | outcome
NC(=O)c1n[nH]c(C2OC(CO)C(O)C2O)n1 (stereo not drawn) | > 200 | 170 | 
c1coc(-c2cc(-c3cc(-c4ccco4)on3)no2)c1 | > 933 | 589 | 
CCNc1cc2oc(=O)cc(C)c2cc1C | > 33.1 | > 33.1 | 
OCC1OC(n2cnc(C3=NCC(O)CN3)n2)C(O)C1O (stereo not drawn) |  |  | inactive
C=C1C(=O)O[C@H]2CC(C)C3C(O)CC(O)[C@@]3(C)C[C@H]12 (stereo partly drawn) | > 933 | 6.03 | 
CC(Cc1cccc2c1Nc1ccccc1S2)N(C)CCO (stereo not drawn) | > 200 | 33.9 | 
O=C1C=CC(=O)C(CNc2ccc(C(=O)OC34CC5CC(CC(C5)C3)C4)cc2)=C1Br | > 200 | 1.51 | 
Cn1ccnc1Cn1cc(-c2cccc(-c3cn[nH]c3)c2)cn1 |  |  | inactive
CC1CC(c2ccc3ccccc3c2)NCCNC(c2ccc3ccccc3c2)CC(C)NCCN1 (stereo not drawn) | > 200 | 1.15 | 
COc1cc2c(cc1OC)C(CC1=C(c3ccccc3)CN3CCc4cc(OC)c(OC)cc4C3C1)NCC2 (stereo not drawn) |  |  | inactive
CC1=NN(c2ccccc2)C(=O)C12[C@H](c1ccccc1)C2(C#N)C#N (stereo partly drawn) | > 21.9 | 3.39 | 
COc1ccc(/C=C/c2nc(=S)[nH][nH]2)cc1 | > 214 | > 214 | 
C[C@H](CCC1=NCCN1)[C@H]1CC[C@H]2[C@@H]3CC[C@@H]4C[C@H](O)CC[C@]4(C)[C@H]3C[C@H](O)[C@]12C | > 200 | 11.5 | 
CCCCCC=C(c1cc(Br)cc(C(=O)O)c1OC)c1cc(Br)cc(C(=O)O)c1OC | > 170 | 166 | 
CCC[N+]1=C/c2ccccc2OC(=O)/C=C\1[O-] | > 200 | > 200 | 
O=C(C(Cl)=C(N1CCCCC1)N1CCCCC1)C(Cl)Cl | > 200 | 174 | 
COC1(OC)C2(Cl)C(Cl)=C(Cl)C1(Cl)C1C2C2CC1(C(=O)O)c1ccccc12 (stereo not drawn) | > 251 | 13.5 | 
COC(=O)C(=O)c1c2ccccc2n2ccc3c4ccccc4[nH]c3c12 | > 200 | 83.2 | 
Cc1cc(O)c(/C=N/C(=O)NN)c(=O)o1 | > 200 | > 200 | 
O=C(O)CCC(NC(=O)c1ccc(Nc2nc3ccccc3nc2C(=O)O)cc1)C(=O)O (stereo not drawn) | > 200 | > 200 | 
C=CC[P@]1(=O)O[C@H](c2ccccc2)C(C)N1C(C)C (stereo partly drawn) |  |  | inactive
N#CC(c1cc2c(cc1Br)OCO2)N1CCOCC1 (stereo not drawn) | > 200 | 9.77 | 

SMILES | EC50 [µM] | IC50 [µM] | outcome
COC(=O)[C@@H](NC(=O)N(Cc1ccccc1)C[C@H](CC(C)C)NC(=O)[C@@H](NC(=O)OC(C)(C)C)C(C)C)C(C)C | > 200 | > 100 | 
CCNC(=S)Nc1c(C#N)c2n(c1C(=O)OCC)CCCCC2 | > 200 | > 200 | 
CCOC(=O)/C(C1=NCCN1)=C(\O)c1ccccc1 | 468 | 912 | 
O=c1cc(C(F)(F)F)[nH]c2c3ncccc3c3nc4ccccc4nc3c12 | 0.214 | 2.82 | 
CN(C)c1ccc2c(c1)C(=O)N(OS(=O)(=O)c1ccc([N+](=O)[O-])cc1)C2=O | > 47.9 | 20.4 | 
CCOC(=O)c1ccc(CSc2ccccc2C(=O)O)cc1 | > 16.6 | > 16.6 | 
Cc1ccccc1N=O | > 200 | 9.77 | 
C=CCNC(=S)N1c2ccccc2NC(=O)CC1C (stereo not drawn) | > 661 | > 661 | 
CNC(=O)Nc1cc2c3c(c1)CCCN3CCC2 | 135 | 178 | 
CCOC(=O)CCC(NC(=O)C(CCC(=O)OCC)NC(=O)C(Cc1ccc([N+](=O)[O-])cc1)NC(C)=O)C(=O)NNC(=O)OC(C)(C)C (stereo not drawn) | > 200 | > 200 | 
COCc1cn(C2CCC(CO)O2)c(=O)nc1N (stereo not drawn) | > 490 | > 490 | 
O=c1c(-c2nn[nH]n2)cnc2sc3cc(Cl)ccc3n12 | > 200 | 89.1 | 
CCOC(=O)c1ccc(-c2cc(C)no2)[nH]1 | > 200 | 36.3 | 
O=C1CC(O)c2c(Cl)sc(Cl)c21 (stereo not drawn) | > 200 | 5.25 | 
Cc1ccc2sc3cc(=O)cc(C)c-3nc2c1 | > 10.7 | > 10.7 | 
O=C1CCC(N2C(=O)C3CC=CCC3C2=O)C(=O)N1 (stereo not drawn) | > 200 | > 200 | 
CCCCN(CCC/C=C/OC)C(C#N)c1ccccc1 (stereo not drawn) | > 871 | > 871 | 
COC(=O)CC1N=C(NC#N)N(CCc2c[nH]c3ccccc23)C1=O (stereo not drawn) |  |  | inactive
O=[N+]([O-])c1ccc(-c2nn3c(C45CC6CC(CC(C6)C4)C5)nnc3s2)c(Cl)c1 | > 200 | > 200 | 
Cc1ccc(C)c(NC(=O)/C(=N\N)C(c2cnc3ccc([N+](=O)[O-])cc3n2)[N+](=O)[O-])c1 (stereo not drawn) | > 589 | 219 | 
Cc1nc2c(s/c(=N\N)n2-c2ccccc2)c(=O)[nH]1 | > 36.3 | > 36.3 | 
C[C@]12CCC[C@](C)(C(=O)O)[C@@H]1CC[C@@]13C[C@@H](CC[C@@H]12)[C@@H](C(=O)O)C3 | > 200 | > 200 | 
